This is an account of results in publication PMC12475274, “Harnessing indole scaffolds to identify small-molecule IRE1α inhibitors modulating XBP1 mRNA splicing” (Nature Communications, 2025).

SMILES strings stand for the structures. Where “and” joins values, the source holds several entries; their conditions need not be identical. Equal values may be shown once. Read-outs that look alike come from different tables or passages of the source. Some results are limits rather than exact numbers.

The target of experiment [1] is T1, dephosphorylated IRE1α (547–977) (Homo sapiens, UniProt O75460).
T1 construct: Human IRE1α kinase and RNase domain (residues 547–977) was subcloned into pLIB plasmid; His tag (with TEV cleavage site) (N, cleaved yes); made in house; host or cells: Sf9 insect cells, baculovirus (Bac-to-Bac)
T1 sequence (O75460 547-977): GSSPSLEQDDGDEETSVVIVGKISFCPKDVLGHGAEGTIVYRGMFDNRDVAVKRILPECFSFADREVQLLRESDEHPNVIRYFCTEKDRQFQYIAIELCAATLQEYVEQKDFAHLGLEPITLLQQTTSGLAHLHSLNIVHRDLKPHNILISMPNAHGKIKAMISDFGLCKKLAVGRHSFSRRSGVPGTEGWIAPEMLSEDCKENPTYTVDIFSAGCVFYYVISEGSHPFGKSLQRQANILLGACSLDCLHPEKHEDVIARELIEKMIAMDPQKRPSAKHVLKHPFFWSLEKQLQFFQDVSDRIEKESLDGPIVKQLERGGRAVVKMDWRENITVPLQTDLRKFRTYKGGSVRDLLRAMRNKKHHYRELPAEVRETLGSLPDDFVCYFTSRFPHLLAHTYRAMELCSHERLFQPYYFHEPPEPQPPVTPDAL
As to the kind of experiment: FRET-based IRE1α RNase activity assay, dephosphorylated IRE1α. It counts as biochemical. As to conditions: for IC50: FRET assay; for inhibition at 50 µM: read-out: IRE1α inhibition%. The method, then:
(§1) Human IRE1α kinase and RNase domain (residues 547–977) was subcloned into pLIB plasmid with a His tag and TEV cleavage site, and expressed using Bac-to-Bac expression system. The primers used are listed in Supplementary Table S3. The protein purification was performed following established procedures. Briefly, Sf9 cells were infected with baculovirus and incubated at 27 °C 110 rpm for 72 h. The cells were collected by centrifugation at 4000 × g for 15 min and the cell pellet was resuspended in lysis buffer (50 mM HEPES pH 7.5, 300 mM NaCl, 10% glycerol, 1 mM MgCl2, 1 mM TCEP, 5 mM imidazole), then supplemented with 1:10,000 benzonase (Sigma, E1014), 1 tablet/25 mL […]™ Protease Inhibitor Cocktail tablets (Sigma, S8830) and 1 mM PMSF before lysed by sonication at 4 °C. […] The protein elution was incubated with TEV protease to remove His tag at 4 °C overnight. Then the sample was diluted 1:6 in buffer (50 mM HEPES pH 7.5, 1 mM TCEP, 5% glycerol) and loaded onto a 5 mL pre-packaged Q HP anion exchange column (Cytiva, HiTrap Q HP) pre-equilibrated with QA buffer (50 mM HEPES pH 7.5, 50 mM NaCl, 1 mM TCEP, 5% glycerol). The unphosphorylated and phosphorylated protein was separated by eluting the protein with a very shallow gradient with 0-30% buffer QB (50 mM HEPES pH 7.5, 1 M NaCl, 1 mM TCEP, 5% glycerol) over 80 CV. Different peaks were collected separately and verified by LC-MS. The fully phosphorylated fraction was collected and further purified by size exclusion chromatography (Cytiva, HiLoad 16/600 Superdex 200 pg,) with SEC buffer (25 mM HEPES pH 7.5, 250 mM NaCl, 1 mM TCEP, 10% glycerol) and fractioned as monomeric peak. The rest protein fraction from the Q HP anion exchange column was incubated with Lambda protein phosphatase (New England BioLabs, P0753S) overnight at 4 °C, the dephosphorylation was confirmed by LC-MS. The unphosphorylated protein was further purified by size exclusion chromatography with the SEC buffer described above. The purified phosphorylated (p-IRE1α) and dephosphorylated (IRE1α) protein aliquots were stored at −80 °C for future usage.
The dual-labeled RNA substrate with a FAM at 5’ and the BHQ-1 at 3’ containing the XBP1 sequence (5′FAM-[…]-3′BHQ1) was purchased from Integrated DNA Technologies (IDT). The FRET-based IRE1α RNase activity assay was carried out in reaction buffer containing 20 mM HEPES pH 7.5, 50 mM KOAc, 1 mM MgOAc2, 1 mM DTT, 0.05% v/v TritonX-100, at a total reaction volume of 20 μL in a 384-well black plate (4514, Corning). For unphosphorylated IRE1α (IRE1α), a final concentration of 40 nM IRE1α protein and 100 nM RNA substrate was used. For phosphorylated IRE1 (p-IRE1α), a final concentration of 4 nM p-IRE1α protein and 200 nM RNA substrate was used. The indicated compound and IRE1α protein were incubated for 30 min at room temperature before the substrate was added to the reaction. The plate was then kinetically read over one hour at room temperature using a TECAN Spark plate reader. The measurement was carried out using the fluorescence top reading mode at the excitation wavelength of 485 nm and the emission wavelength of 535 nm with a 10 nm excitation and emission bandwidth. The linear part of the reaction curve was adopted and fitted with sample linear regression to obtain the slope, and the slope was adopted to reflect the reaction rate. The inhibition % was calculated by using the equation: inhibition% = 100 × (slope of DMSO control – slope of the sample)/(slope of DMSO control – slope of blank control), DMSO control: DMSO with protein and RNA substrate; Blank control: DMSO with RNA substrate. The IC50 values were calculated using the concentration-response model in GraphPad Prism 9. […]

In experiment [2] the target is T2, phosphorylated IRE1α (p-IRE1α) (Homo sapiens, UniProt O75460).
T2 construct: Human IRE1α kinase and RNase domain (residues 547–977) was subcloned into pLIB plasmid; His tag (with TEV cleavage site) (N, cleaved yes); made in house; host or cells: Sf9 insect cells, baculovirus (Bac-to-Bac)
T2 sequence (O75460 547-977): as above
As to the kind of experiment: FRET-based IRE1α RNase activity assay, phosphorylated IRE1α. It counts as biochemical. The following applies: for IC50: FRET assay. The method, then:
as §1
The dual-labeled RNA substrate with a FAM at 5’ and the BHQ-1 at 3’ containing the XBP1 sequence (5′FAM-[…]-3′BHQ1) was purchased from Integrated DNA Technologies (IDT). The FRET-based IRE1α RNase activity assay was carried out in reaction buffer containing 20 mM HEPES pH 7.5, 50 mM KOAc, 1 mM MgOAc2, 1 mM DTT, 0.05% v/v TritonX-100, at a total reaction volume of 20 μL in a 384-well black plate (4514, Corning). For unphosphorylated IRE1α (IRE1α), a final concentration of 40 nM IRE1α protein and 100 nM RNA substrate was used. For phosphorylated IRE1 (p-IRE1α), a final concentration of 4 nM p-IRE1α protein and 200 nM RNA substrate was used. The indicated compound and IRE1α protein were incubated for 30 min at room temperature before the substrate was added to the reaction. The plate was then kinetically read over one hour at room temperature using a TECAN Spark plate reader. The measurement was carried out using the fluorescence top reading mode at the excitation wavelength of 485 nm and the emission wavelength of 535 nm with a 10 nm excitation and emission bandwidth. The linear part of the reaction curve was adopted and fitted with sample linear regression to obtain the slope, and the slope was adopted to reflect the reaction rate. The inhibition % was calculated by using the equation: inhibition% = 100 × (slope of DMSO control – slope of the sample)/(slope of DMSO control – slope of blank control), DMSO control: DMSO with protein and RNA substrate; Blank control: DMSO with RNA substrate. The IC50 values were calculated using the concentration-response model in GraphPad Prism 9.

The mark [3] stands for this setting: RNase activity, mean (± SEM), read-out: IRE1α IC50.
Setting [4] is: source data, unit from Fig. 3 / sheet Fig. 2b, read-out: IRE1a IC50, individual replicates (n1-n4).
[5] abbreviates: RNase activity, mean (± SEM), read-out: p-IRE1α IC50.
The mark [6] stands for this setting: source data, unit from Fig. 3, read-out: p-IRE1a IC50, individual replicates (n1-n4).
[7] abbreviates: FRET assay at 50 μM, mean (± SEM).
The mark [8] stands for this setting: FRET assay at 50 μM, source data, 50 µM.
[9] abbreviates: FRET assay at 50 μM, mean (± SEM), read-out: p-IRE1α inhibition%.

Consider `COc1ccc(C(=O)n2c(C)c(CCC(=O)O)c3cc(OC)ccc32)cc1` [IA96], for which the IC50 (in general, the midpoint of a concentration-inhibition curve) is 170 nM in experiment [1] (setting [3]); 55.7 nM and 53.7 nM and 388 nM in experiment [1] (setting [4]); 200 nM in experiment [2] (setting [5]); 83 nM and 113 nM and 398 nM in experiment [2] (setting [6]).
As for `COc1ccc2c(c1)c(CCCC(=O)O)c(C)n2C(=O)c1ccc(Cl)cc1` [cms02], the inhibition – broadly, the relative decrease from the control value, in per cent – at 50 µM came to 40.3% in experiment [1] (setting [7]) and 42.5% in experiment [2] (setting [9]). For the same compound, the “IRE1a inhibition(%), individual measurements” value in experiment [1] (setting [8]) was 64.1986% and 50.8974% and 61.5831% and 7.967% and 17.0403%. In experiment [2] (setting [8]), the “p-IRE1a Inhibiton%, individual measurements” value is 54.5805% and 55.2276% and 56.4075% and 61.6984% and 12.177% and 15.0468%.
For `CCc1c(C)n(C(=O)c2ccc(Cl)cc2)c2ccc(OC)cc12` [cms01], the inhibition at 50 µM in experiment [1] (setting [7]) and in experiment [2] (setting [9]) was less than 30% each time.
For `Cc1c(CCC(=O)O)c2cc(F)ccc2n1C(=O)c1ccccc1` [IA137], the half-maximal inhibitory concentration (IC50) in experiment [1] (setting [3]) was 420 nM; in experiment [1] (setting [4]), 180 nM and 670 nM and 418 nM; in experiment [2] (setting [5]) it was 720 nM; in experiment [2] (setting [6]) it was 252 nM and 1120 nM and 788 nM.
On to `COc1ccc2c(c1)c(CC(=O)OCC(=O)O)c(C)n2C(=O)c1ccc(Cl)cc1` [cms03], for which the inhibition at 50 µM in experiment [1] (setting [7]) and in experiment [2] (setting [9]) was less than 30% each time.
On to `COC(=O)CCc1c(C)n(C(=O)c2ccc(Cl)cc2)c2ccc(OC)cc12` [cms04], for which the inhibition at 50 µM in experiment [1] (setting [7]) and in experiment [2] (setting [9]) was less than 30% each time.
As for `Cc1c(CCC(=O)O)c2cc(Br)ccc2n1C(=O)C1CCCCC1` [IA165], in experiment [1], the “effect on IRE1α RNase activity in the FRET assay” value is given as “decreased the inhibitory activity”. This compound also gave an inhibition at 0.617284 µM in experiment [1] (IRE1a, 0.617284 μM) of 36.9%. The “inhibition(%)” value in experiment [1] (IRE1a, 0.617284 μM) was 46.932% and 53.398% and 47.875%; in experiment [1] (IRE1a, 1.85185 μM) it was 60.820% and 65.775% and 59.822%; in experiment [1] (IRE1a, 5.55556 μM) it was 76.919% and 67.673% and 77.366%; in experiment [1] (IRE1a, 16.6667 μM) it was 82.061% and 76.393% and 74.507%; in experiment [1] (IRE1a, 50 μM), 53.077% and 49.468% and 70.447% and 68.706%; in experiment [2] (p-IRE1a, 0.000847 μM), -0.707% and 0.787% and -7.504% and -5.865%. In addition, the “inhibition(%)” value in experiment [2] (p-IRE1a, 0.00254 μM) was -6.491% and -3.358% and -4.226% and 3.246%; in experiment [2] (p-IRE1a, 0.007621 μM), -0.418% and -0.611% and -4.226% and 0.305%; in experiment [2] (p-IRE1a, 0.068587 μM) it was 0.450% and 2.715% and -3.792% and 0.305%; in experiment [2] (p-IRE1a, 0.205761 μM), 1.992% and 4.885% and 4.065% and 5.463%; in experiment [2] (p-IRE1a, 1.85185 μM) it was 36.843% and 31.203% and 36.891%; in experiment [2] (p-IRE1a, 5.55556 μM), 56.028% and 61.836% and 59.894%. Besides, the “inhibition(%)” value in experiment [2] (p-IRE1a, 16.6667 μM) was 88.753% and 83.846% and 83.803%; in experiment [2] (p-IRE1a, 50 μM), 95.227% and 95.680% and 96.051%. In addition, the inhibition at 1.85185 µM turned out to be 53.7% in experiment [1] (IRE1a, 1.85185 μM) and 34% in experiment [2] (p-IRE1a, 1.85185 μM). Further, the inhibition at 5.55556 µM turned out to be 76% in experiment [1] (IRE1a, 5.55556 μM) and 58.9% in experiment [2] (p-IRE1a, 5.55556 μM). Moreover, the inhibition at 16.6667 µM in experiment [1] (IRE1a, 16.6667 μM, read-out: inhibition(%)) is 75.9%; in experiment [2] (p-IRE1a, 16.6667 μM) it was 90.7%. In addition, the inhibition at 50 µM in experiment [2] (p-IRE1a, 50 μM, read-out: inhibition(%)) was 94.7%.
Turning to `COc1ccc2c(c1)c(CCC(=O)O)c(C)n2C(=O)C1CCOCC1` [IA81], the IC50 in experiment [1] (setting [3]) was 2040 nM; in experiment [1] (setting [4]) it was 1900 nM and 2230 nM and 1980 nM; in experiment [2] (setting [5]), 5610 nM and 5600 nM; in experiment [2] (setting [6]) it was 5640 nM and 7330 nM and 3850 nM.
On to `Cc1c(CCC(=O)O)c2cc(C(C)C)ccc2n1C(=O)c1ccccc1` [IA110], for which the IC50 is 240 nM in experiment [1] (setting [3]); 230 nM and 198 nM and 292 nM in experiment [1] (setting [4]); 200 nM in experiment [2] (setting [5]); 205 nM (2×) and 190 nM in experiment [2] (setting [6]).
Turning to `Cc1c(CCC(=O)O)c2cc(-c3cccs3)ccc2n1C(=O)c1ccccc1` [IA140], the IC50 in experiment [1] (setting [3]) is 2970 nM; in experiment [1] (setting [4]), 2310 nM and 3810 nM and 2780 nM; in experiment [2] (setting [5]), 7560 nM; in experiment [2] (setting [6]), 1970 nM and 10100 nM and 10600 nM.
Turning to `COc1ccc2c(c1)c(CC(=O)OC(C)C)c(C)n2C(=O)c1ccc(Cl)cc1` [cms07], the inhibition at 50 µM in experiment [1] (setting [7]) and in experiment [2] (setting [9]) was less than 30% throughout.
